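Cultured in 96-well plates, cells were exposed to test compound for 48 hours across five concentrations. Abbreviation: GI50, concentration required for 50% inhibition of growth.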 Calls of active or inactive are those of the source. Cut-off read from the data, not from the text of the source: active = GI50 up to about 1.1 µM and inactive = higher.
Columns and labels:
Assay in all cases: NCI tumour cell line growth inhibition, 48 h
UACC-62 = system: UACC-62
HOP-62 = system: HOP-62
HL-60 = system: HL-60
SNB-75 = system: SNB-75
OVCAR-5 = system: OVCAR-5
SK-MEL-5 = system: SK-MEL-5
NCI-H226 = system: NCI-H226
M14 = system: M14
SW-620 = system: SW-620
SNB-19 = system: SNB-19
NCI/ADR-RES = system: NCI/ADR-RES
LOX IMVI = system: LOX IMVI
CAKI-1 = system: CAKI-1
Malme-3M = system: Malme-3M
RXF 393 = system: RXF 393
A498 = system: A498
EKVX = system: EKVX
M19-MEL = system: M19-MEL
DLD-1 = system: DLD-1
DMS-273 = system: DMS-273

Measured: GI50

O=c1ccc2nc3ccc(O)cc3oc-2c1
inactive: UACC-62 2.7 µM | HOP-62 17 µM | HL-60 10.5 µM | SNB-75 6.78 µM | OVCAR-5 > 100 µM | SK-MEL-5 1.6 µM | NCI-H226 27.8 µM | M14 4.3 µM | SW-620 13.2 µM | SNB-19 38.6 µM | NCI/ADR-RES 19.5 µM | LOX IMVI 2.75 µM | CAKI-1 > 67.9 µM | Malme-3M 2.72 µM | RXF 393 > 100 µM | A498 35.2 µM | EKVX > 100 µM

CCOC(=O)C1=C(Nc2ccccc2)SCC1=O
inactive: UACC-62 > 100 µM | HOP-62 > 100 µM | HL-60 > 100 µM | SNB-75 > 100 µM | OVCAR-5 > 100 µM | NCI-H226 > 100 µM | M14 > 100 µM | SW-620 > 100 µM | SNB-19 > 100 µM | LOX IMVI > 100 µM | CAKI-1 > 100 µM | Malme-3M > 100 µM | M19-MEL > 100 µM | DLD-1 > 100 µM | DMS-273 > 100 µM

COC(Cc1cc(C(O)(c2ccc(C(C)(C)C)cc2)c2cc(CC(OC)(c3cc(C(OC)(c4ccc(C(C)(C)C)cc4)c4ccc(C(C)(C)C)cc4)c(C)cc3C)c3cc(C(OC)(c4ccc(C(C)(C)C)cc4)c4ccc(C(C)(C)C)cc4)c(C)cc3C)c(C)cc2C)c(C)cc1C)(c1cc(C(OC)(c2ccc(C(C)(C)C)cc2)c2ccc(C(C)(C)C)cc2)c(C)cc1C)c1cc(C(OC)(c2ccc(C(C)(C)C)cc2)c2ccc(C(C)(C)C)cc2)c(C)cc1C
inactive: UACC-62 > 75 µM | HOP-62 > 75 µM | HL-60 > 75 µM | SNB-75 > 75 µM | OVCAR-5 > 75 µM | SK-MEL-5 > 75 µM | NCI-H226 > 75 µM | M14 > 75 µM | SW-620 > 75 µM | SNB-19 > 75 µM | NCI/ADR-RES > 75 µM | LOX IMVI > 75 µM | CAKI-1 > 75 µM | Malme-3M > 75 µM | RXF 393 > 75 µM | A498 > 75 µM | EKVX > 75 µM

CC(=O)/N=C1\N/C(=C\c2ccc(Cl)cc2)C(=O)N1/C=C1\C(=O)Oc2ccccc2C1=O
inactive: UACC-62 26.3 µM | HOP-62 > 100 µM | HL-60 > 100 µM | SNB-75 27.5 µM | OVCAR-5 > 100 µM | SK-MEL-5 47.2 µM | NCI-H226 > 100 µM | M14 > 100 µM | SW-620 > 100 µM | SNB-19 > 100 µM | NCI/ADR-RES > 100 µM | LOX IMVI > 100 µM | CAKI-1 > 100 µM | Malme-3M > 100 µM | RXF 393 > 100 µM | A498 10.8 µM | EKVX 13.3 µM

O=C(CCCCCCCCCCc1ccccc1)C1=C(O)CC(O)CC1=O (centres undefined)
inactive: UACC-62 59.8 µM | HOP-62 > 100 µM | HL-60 20.7 µM | SNB-75 > 100 µM | OVCAR-5 39.5 µM | SK-MEL-5 48 µM | NCI-H226 24 µM | M14 59.8 µM | SW-620 76.9 µM | SNB-19 88.5 µM | LOX IMVI 48.2 µM | CAKI-1 94.4 µM | M19-MEL 53.3 µM | RXF 393 > 100 µM | DLD-1 80.4 µM | DMS-273 48 µM | EKVX 81.1 µM

Cc1cc(C)c(S(=O)(=O)N(CCCCCN)OCCCN)c(C)c1
inactive: UACC-62 17.7 µM | HOP-62 16.5 µM | SNB-75 15.3 µM | OVCAR-5 17.9 µM | SK-MEL-5 16.3 µM | NCI-H226 14.8 µM | M14 18.3 µM | SW-620 19 µM | SNB-19 20.3 µM | NCI/ADR-RES 18 µM | LOX IMVI 17.7 µM | CAKI-1 17.4 µM | Malme-3M 23.4 µM | RXF 393 10.3 µM | EKVX 15.9 µM

COc1ccc(N2C(Cl)C(=O)C2c2c[nH]c3ccccc23)cc1 (centres undefined)
inactive: UACC-62 > 100 µM | HOP-62 > 100 µM | HL-60 > 100 µM | SNB-75 > 100 µM | OVCAR-5 80.9 µM | SK-MEL-5 > 100 µM | M14 > 100 µM | SW-620 > 100 µM | SNB-19 91.8 µM | Malme-3M 72.6 µM | M19-MEL > 100 µM | RXF 393 > 100 µM | EKVX > 100 µM

OC(c1ccc(-c2ccccc2)cc1)(c1ccc(-c2ccccc2)cc1)c1ccc(-c2ccccc2)cc1
inactive: UACC-62 > 100 µM | HOP-62 > 100 µM | HL-60 > 10 µM | OVCAR-5 > 100 µM | SK-MEL-5 > 100 µM | M14 52.7 µM | SNB-19 > 100 µM | NCI/ADR-RES > 100 µM | LOX IMVI > 100 µM | CAKI-1 > 100 µM | RXF 393 > 100 µM | EKVX > 100 µM

Cc1ccc([N+](=O)[O-])cc1S(=O)(=O)Nc1ccc(C2=NNC(c3ccccc3O)C2)cc1 (centres undefined)
inactive: UACC-62 17.6 µM | HOP-62 21.1 µM | HL-60 12.1 µM | SNB-75 33.2 µM | OVCAR-5 32.4 µM | SK-MEL-5 19.2 µM | NCI-H226 48.3 µM | M14 20.7 µM | SW-620 31 µM | SNB-19 33.8 µM | NCI/ADR-RES 24.8 µM | LOX IMVI 34.8 µM | CAKI-1 25.1 µM | Malme-3M 25.9 µM | RXF 393 15.2 µM | A498 19.9 µM | EKVX 20.9 µM

O=c1[nH]c(=O)n(C2OC3COC2C3O)cc1F (centres undefined)
inactive: HOP-62 > 100 µM | HL-60 > 100 µM | SNB-75 > 100 µM | OVCAR-5 > 100 µM | SK-MEL-5 > 100 µM | NCI-H226 41.5 µM | M14 > 100 µM | SW-620 > 100 µM | SNB-19 > 100 µM | LOX IMVI > 100 µM | CAKI-1 > 100 µM | Malme-3M > 100 µM | RXF 393 > 100 µM | DLD-1 > 100 µM | DMS-273 > 100 µM | EKVX > 100 µM

O=c1c2c(nc3[nH]ccn13)CCCC2
inactive: UACC-62 > 10 µM | HOP-62 > 10 µM | HL-60 > 10 µM | SNB-75 > 10 µM | OVCAR-5 > 10 µM | SK-MEL-5 > 10 µM | NCI-H226 > 10 µM | M14 > 10 µM | SW-620 > 10 µM | SNB-19 > 10 µM | NCI/ADR-RES > 10 µM | LOX IMVI > 10 µM | CAKI-1 > 10 µM | Malme-3M > 10 µM | RXF 393 > 10 µM | A498 > 10 µM | EKVX > 10 µM

O=c1c(C(c2ccccc2)c2c(O)oc3cc(O)ccc3c2=O)c(O)oc2cc(O)ccc12
inactive: UACC-62 > 100 µM | HOP-62 > 100 µM | HL-60 > 100 µM | SNB-75 > 100 µM | OVCAR-5 > 100 µM | SK-MEL-5 52 µM | NCI-H226 > 100 µM | M14 > 100 µM | SW-620 > 100 µM | NCI/ADR-RES > 100 µM | LOX IMVI > 100 µM | CAKI-1 > 100 µM | Malme-3M > 100 µM | RXF 393 > 100 µM | A498 > 100 µM | EKVX > 100 µM

Source: ChEMBL document CHEMBL1201862, “PubChem BioAssay data set” (2004)
